For test [1], the system named is GPR120 null mice. The experiment in a line: OGTT in male GPR120 null mice. It counts as in vivo, mouse. The protocol: OGTT tests were performed in lean male mice (body weight 27-32g), randomized on body weight, fasted for 16 hours. An oral glucose load (2 g/kg) was administered 30 min (AZ13581837, 7 and 18 mg/kg) or 60 min (Metabolex-36, 10, 30 and 100 mg/kg) after oral dosing with the GPR120 agonists and blood glucose was measured at -30, 0, 10, 25, 40, 60 and 90 min post glucose administration. The specificity of Metabolex-36 was examined in male GPR120 null mice. The administration time for the GPR120 agonists was optimized depending on the pharmacokinetic profile of each compound, in order to maximize the plasma exposure of the compounds during the experiments.

In test [2] the target is T1, human GPR120 (Homo sapiens, UniProt Q5NUL3).
T1 construct: expressed in transfected cells
T1 sequence (Q5NUL3 1-361): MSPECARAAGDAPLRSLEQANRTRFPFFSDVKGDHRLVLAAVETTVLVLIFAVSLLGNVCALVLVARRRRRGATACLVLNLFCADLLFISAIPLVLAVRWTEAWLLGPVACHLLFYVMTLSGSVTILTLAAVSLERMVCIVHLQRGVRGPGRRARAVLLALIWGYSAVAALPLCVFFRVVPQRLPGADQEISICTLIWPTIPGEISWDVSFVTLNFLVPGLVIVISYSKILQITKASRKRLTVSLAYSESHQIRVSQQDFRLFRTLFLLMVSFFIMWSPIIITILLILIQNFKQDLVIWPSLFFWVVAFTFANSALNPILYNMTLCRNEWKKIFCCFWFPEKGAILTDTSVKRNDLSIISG
The experiment in a line: DMR (dynamic mass redistribution) assay in CHO-hGPR120 cells. In kind it is cell-based. The note with it: for DMR response after Gαs inhibition: CHO-hGPR120 cells treated with CTX; for DMR response after Gαi inhibition: CHO-hGPR120 cells treated with PTX; for DMR response after Gαq inhibition: CHO-hGPR120 cells treated with QIC; for EC50: mean ± SEM.

Test [3] concerns the target T1, human GPR120. The experiment in a line: β-arrestin recruitment (Tango) assay in U2OS-hGPR120 cells. It counts as cell-based. The protocol:
U2OS-hGPR120 cells cultured in Freestyle medium (Invitrogen) were incubated for 5 hours with GPR120 agonists in 384-well Cell BIND plates (Corning) at 37°C, 95% humidity and 5% CO2. LiveBLAzer™ FRET B/G working solution (Invitrogen) was added and after 2 hours at room temperature fluorescence intensity (λex = 405 nm, λem = 530 and 460 nm) was detected using a Pherastar FS (BMG Labtech) according to the manufacturers protocol.

The test system of the next test is STC-1 cells. Kind of test: GLP-1 secretion from STC-1 cells. In kind it is cell-based, mouse. The note with it: 2 hours, active GLP-1, vs 0.1% DMSO. The protocol: STC-1 cells were cultured in DMEM (Invitrogen) supplemented with 10% horse serum (ThermoFisher Scientific), 2.5% FBS (Hyclone) and 1% Penicillin/Streptomycin in 96-well poly-D-Lysine coated plates to 80–90% confluence at 37°C, 5% CO2. Cells were washed and pre-incubated in assay buffer (HBSS with Ca^2+ and Mg^2+ containing 20 mM HEPES, 0.1% BSA (Sigma) and 20 nM sitagliptin (dipeptidyl peptidase 4 (DPP-4) inhibitor), for 30 min in 37°C. GPR120 agonists were added and cells were incubated for 2 hours in 37°C. DMSO (0.1%) was used as control. GLP-1 secretion was measured in the supernatants (GLP-1 active, Millipore) by fluorescence detection. Concentration of active GLP-1 was derived by interpolation from a GLP-1 standard curve.

The target in a further test is T2, mouse GPR40 (Mus musculus, UniProt Q76JU9).
T2 construct: expressed in transfected cells
T2 sequence (Q76JU9 whole entry): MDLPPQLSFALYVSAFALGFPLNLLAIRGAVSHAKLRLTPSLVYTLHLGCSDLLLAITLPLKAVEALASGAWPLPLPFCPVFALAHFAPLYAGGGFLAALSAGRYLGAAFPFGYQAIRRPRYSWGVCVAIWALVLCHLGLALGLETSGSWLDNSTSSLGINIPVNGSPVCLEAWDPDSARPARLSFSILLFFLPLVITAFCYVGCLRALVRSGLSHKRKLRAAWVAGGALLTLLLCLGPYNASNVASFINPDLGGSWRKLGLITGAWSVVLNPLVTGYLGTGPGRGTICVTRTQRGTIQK
The experiment in a line: Calcium mobilization assay in HEK293-mGPR40 cells. It counts as cell-based. The protocol:
CHO-hGPR120 and CHO cells were cultured in DMEM/F-12 (Invitrogen) with 10% FBS (Sigma) and HEK293-mGPR40 in DMEM (Invitrogen) supplemented with 10% FBS in 384-well poly-D-Lysin coated microplates (Greiner) at 37°C, 95% humidity and 5% CO2. After 19 hours cell media was replaced with Calcium4 dye (Molecular Devices) in HBSS (Invitrogen), 20 mM HEPES (Invitrogen), pH 7.4 and 1.25 mM Probenecid (Sigma). After 1 hour at room temperature agonists were added and calcium mobilization was detected as change in fluorescence (λex = 488 and λem = 540 nm) using a FLIPR^TETRA (Molecular Devices).

The test system of the next test is mouse islets. Also noted: method as in PMID 24663807. The following applies: cited from earlier work.
Test [4] has as its system GPR120 null mice. Kind of test: IVGTT in female GPR120 null mice. It counts as in vivo, mouse. The protocol: Lean female mice (body weight 20–25 g), were randomized on body weight and fasted 4 hours prior to the IVGTT. Metabolex-36 (100 mg/kg) was administered orally 60 min and AZ13581837 (35mg/kg) 30 min before the IVGTT ([…]). Control mice were given vehicle (0.5% HPMC, 0.1% Tween-80) at corresponding time points. The specificity of AZ13581837 was examined in IVGTT in GPR120 null mice. GPR120 agonist doses were selected to reach plasma levels of at least 10 times over the in vitro EC50 value to achieve maximal activation of GPR120 (S2 Appendix). Thirty minutes prior to the glucose load, the mice were anaesthetised (20 mg/kg fluanisone/0.8 mg/kg fentanyl (Hypnorm®, Janssen, Beerse, Belgium) and 10 mg/kg midazolam (Dormicum®, Hoffman-LaRoche, Basel, Switzerland)) to allow for rapid blood sampling. The mice were kept at a heating pad to maintain body temperature.
In the IVGTT, the acute insulin response (AIR) was calculated as the mean of suprabasal 1 and 5 min values, and the glucose elimination was quantified using the glucose elimination constant (KG) calculated as the slope of the logarithmic transformation of circulating glucose between 1 and 20 min after the glucose bolus. Multiple comparisons between the different groups were performed by one-way ANOVA. Tukey’s or Bonferroni’s post hoc test were used to calculate statistical differences between the groups. […]

“3-(3,5-difluoro-4-((3-methyl-1-phenyl-1H-pyrazol-5-yl)methoxy)phenyl)-2-methylpropanoic acid [Metabolex-36]”: the “Effect on oral glucose tolerance in GPR120 null mice” value in the test on GPR120 null mice [1] was “no effect”. In addition, at human GPR120 [2], the “DMR response after Gαs inhibition” value was “partly blocked”, the “DMR response after Gαi inhibition” value is “did not result in any significant decrease” and the “DMR response after Gαq inhibition” value is on record as “only partly reduced”. This molecule also had a concentration giving a half-maximal response (EC50) on human GPR120 [2] (CHO-hGPR120 cells) of 0.57 ± 0.15 µM. The EC50 on human GPR120 [3] (read-out: β-arrestin EC50, β-arrestin recruitment in U2OS-hGPR120 cells, mean ± SEM) is 1.4 ± 0.7 µM. The “GLP-1 secretion from STC-1 cells” value in the test with STC-1 cells was “significantly increased GLP-1 secretion”. Further, the “Activation of mouse GPR40 in calcium mobilization assay” value on mouse GPR40 was “did not activate”. In addition, the “Somatostatin secretion in vitro from mouse islets” value in the test on mouse islets is given as “reduce somatostatin secretion”.

Consider `C#Cc1cc(Oc2cccnc2)cc(N2Cc3ccccc3S2(=O)=O)c1` [AZ13581837, 2-(3-ethynyl-5-(3-pyridyloxy)phenyl)-3H-1,2-benzothiazole 1,1-dioxide], for which the “Glucose elimination in GPR120 null mice” value in the test on GPR120 null mice [4] (IVGTT) is “no effect”. In addition, the “Acute insulin secretion in GPR120 null mice” value with GPR120 null mice [4] (vs vehicle of same genotype) is “no effect”. Further, at human GPR120 [2], the “DMR response after Gαs inhibition” value is listed as “partly blocked”, the “DMR response after Gαi inhibition” value is “did not result in any significant decrease” and the “DMR response after Gαq inhibition” value is on record as “only partly reduced”. Moreover, the “Potency relative to Metabolex-36 in DMR response” value on human GPR120 [2] (CHO-hGPR120 cells, fold more potent than Metabolex-36) was “about 100 fold”. In addition, the 50% effective concentration (EC50) on human GPR120 [2] (CHO-hGPR120 cells) was 0.0052 ± 0.0006 µM. Also, it took 0.0052 ± 0.0004 µM to reach a half-maximal effect on human GPR120 [3] (EC50). Besides, the “GLP-1 secretion from STC-1 cells” value in the test on STC-1 cells is listed as “significantly increased GLP-1 secretion”. Moreover, the “Activation of mouse GPR40 in calcium mobilization assay” value at mouse GPR40 is reported as “did not activate”.

As usually defined, the EC50 is the concentration that produces a half-maximal response.

These data come from paper PMC5716539, “The acute glucose lowering effect of specific GPR120 activation in mice is mainly driven by glucagon-like peptide 1” (PLoS ONE, 2017).
